Experimental data reported in patent US10905691B2, “Use of triazolo(4,5-d)pyrimidine derivatives for prevention and treatment of bacterial infection” (Universite de Liege, priority 2016, dated 2021).

Tests used:
[1] = test system: S. aureus MRSA (ATCC BAA-1556); assay: Killing curve (CFU counting); assay type: cell-based, Staphylococcus aureus; settings: Triafluocyl 20 μg/ml
Protocol: S. aureus MRSA (ATCC BAA-1556) was grown overnight in brain heart infusion (BHI) medium, diluted 1:100 in fresh BHI, and incubated aerobically at 37° C. until bacteria growth reached a logarithmic phase (OD600=0.25-0.3).
Triafluocyl (Cayman Chemical, Item No. 15425) (20 μg/ml), Vancomycin (Sigma, 4 μg/ml or 10 μg/ml), Minocycline (Sigma, 8 μg/ml) or a solvent (DMSO) were added to 5 ml of S. aureus MRSA suspensions.
Bacterial growth for S. aureus MRSA was measured after different time intervals by counting the colony-forming units after plating appropriate culture dilutions on BHI agar plates.
S. aureus MRSA (ATCC BAA-1556) was grown overnight in BHI medium, then a 1:100 inoculum was diluted in fresh BHI and incubated aerobically at 37° C. until bacteria growth reached a logarithmic phase (OD600=0.25-0.3). The culture was split into two and challenged with 38 μM Fluometacyl (=18.2 μg/ml) or DMSO (Ctrl). Bacterial growth was measured after different time intervals by counting the colony-forming units after plating appropriate culture dilutions on BHI agar plates. (N=2)

[2] = test system: Escherichia coli (ATCC 8739); assay: MIC determination with or without polymyxin B nonapeptide (PMBN); assay type: cell-based; settings: PMBN alone up to 40 μg/ml
Protocol: Determination of Minimal Inhibitory Concentration (MIC) and Minimal Bactericidal Concentration (MBC) of Triafluocyl (Cayman Chemical, Item No. 15425) in presence of polymyxin B nonapeptide (PMBN) (Sigma-Aldrich Merk, Item No. P2076) against Escherichia coli (ATCC 8739). […] A single colony grown on a Luria-Bertani Agar (LB) plate was resuspended and cultured in LB medium overnight (O/N) in aerobic conditions (37° C. with 220 rpm shaking), next day a 1:50 inoculum in Mueller-Hinton broth (MHB) is incubated in aerobic conditions for 1 h30 (OD=0.08-0.1) and an inoculum corresponding to 3×10^6 colony forming unit (CFU)/ml, is incubated in presence or absence of different concentrations of Triafluocyl in 1% DMSO with or without 40 μg/ml Polymyxin B nonapeptide (PMBN) for 18 hr in aerobic conditions (37° C. with 220 rpm shaking). Growth of Escherichia coli in 7 conditions depicted in FIG. 11 is evaluated by reading the OD of each culture at 600 nm (OD600) in a spectrophotometer (Victor 3-Perkin Elmer). Determination of Minimal Inhibitory Concentration (MIC) and Minimal Bactericidal Concentration (MBC) of Fluometacyl in presence of polymyxin B nonapeptide (PMBN) (Sigma-Aldrich Merk, Item No. P2076) against Escherichia coli (ATCC 8739). The Minimal Inhibitory Concentration (MIC) represents the concentration, in a liquid culture, at which there is no visible growth of bacteria (no pellet or cloudiness), i.e. ΔOD at 600 nm equal to zero wherein ΔOD is the difference between the resulting optical density (OD) with the molecule together with PMBN, and the optical density (OD) of the blank (blank is the medium alone). A single colony grown on a Luria-Bertani Agar (LB) plate is resuspended and cultured in LB medium overnight (O/N) in aerobic conditions (37° C. with 220 rpm shaking), next day a 1:50 inoculum in Mueller-Hinton broth (MHB) is incubated in aerobic conditions for 1 h30 (OD=0.08-0.1) and an inoculum corresponding to 3×10^6 colony forming unit (CFU)/ml is incubated in presence or absence of different concentrations of Fluometacyl in 1% DMSO (vehicle) with or without 40 μg/ml Polymyxin B nonapeptide (PMBN) for 18 hr in aerobic conditions (37° C. with 220 rpm shaking). Growth of bacteria in the 7 individual cultures (FIG. 12A) is evaluated by reading the OD of each culture at 600 nm (OD600) in a spectrophotometer (Victor 3-Perkin Elmer).

Molecule | effect on S. aureus MRSA viable count after the first two hours ([1]; Vancomycin 10-fold MIC, Minocycline 8-fold MIC, FIG. 8A) | bactericidal effect over the 24 h-experiment compared with Triafluocyl ([1]; Vancomycin 4 or 10 μg/ml, Minocycline 8 μg/ml) | inhibition of E. coli growth [2]
CN[C@H](CC(C)C)C(=O)N[C@H]1C(=O)N[C@@H](CC(N)=O)C(=O)N[C@H]2C(=O)N[C@H]3C(=O)N[C@H](C(=O)N[C@H](C(=O)O)c4cc(O)cc(O)c4-c4cc3ccc4O)[C@H](O)c3ccc(c(Cl)c3)Oc3cc2cc(c3O[C@@H]2O[C@H](CO)[C@@H](O)[C@H](O)[C@H]2O[C@H]2C[C@](C)(N)[C@H](O)[C@H](C)O2)Oc2ccc(cc2Cl)[C@H]1O [Vancomycin, reference compound] | ineffective | less efficient | –
polymyxin B nonapeptide [PMBN, reference compound] | – | – | unable to inhibit E. coli growth
